Results from patent US9790189B2, “Disubstituted 5-fluoro pyrimidine derivatives containing a sulfondiimine group” (Bayer Pharma Aktiengesellschaft, priority 2014, dated 2017).
Values after ≈ are worked out from the molar mass of the structure shown.

Tests used:
[1] = test system: HeLa cells; experiment: Proliferation assay, HeLa (crystal violet); format: cell-based; conditions: Homo sapiens, 96 h, 4 days, read-out: Inhibition of HeLa cell proliferation IC50
Procedure: (§1) Cultivated tumour cells (HeLa, human cervical tumour cells, ATCC CCL-2; NCI-H460, human non-small cell lung carcinoma cells, ATCC HTB-177; A2780, human ovarian carcinoma cells, ECACC #93112519; DU 145, hormone-independent human prostate carcinoma cells, ATCC HTB-81; HeLa-MaTu-ADR, multidrug-resistant human cervical carcinoma cells, EPO-GmbH Berlin; Caco-2, human colorectal carcinoma cells, ATCC HTB-37; B16F10, mouse melanoma cells, ATCC CRL-6475) were plated at a density of 5,000 cells/well (DU145, HeLa-MaTu-ADR), 3,000 cells/well (NCI-H460, HeLa), 2,500 cells/well (A2780), 1,500 cells/well (Caco-2), or 1,000 cells/well (B16F10) in a 96-well multititer plate in 200 μL of their respective growth medium supplemented 10% fetal calf serum. After 24 hours, the cells of one plate (zero-point plate) were stained with crystal violet (see below), while the medium of the other plates was replaced by fresh culture medium (200 μl), to which the test substances were added in various concentrations (0 μM, as well as in the range of 0.001-10 μM; the final concentration of the solvent dimethyl sulfoxide was 0.5%). The cells were incubated for 4 days in the presence of test substances. Cell proliferation was determined by staining the cells with crystal violet: the cells were fixed by adding 20 μl/measuring point of an 11% glutaric aldehyde solution for 15 minutes at room temperature. After three washing cycles of the fixed cells with water, the plates were dried at room temperature. The cells were stained by adding 100 μl/measuring point of a 0.1% crystal violet solution (pH 3.0). After three washing cycles of the stained cells with water, the plates were dried at room temperature. The dye was dissolved by adding 100 μl/measuring point of a 10% acetic acid solution. The extinction was determined by photometry at a wavelength of 595 nm. The change of cell number, in percent, was calculated by normalization of the measured values to the extinction values of the zero-point plate (=0%) and the extinction of the untreated (0 μm) cells (=100%).

[2] = test system: HeLa-MaTu-ADR cells; experiment: Proliferation assay, HeLa-MaTu-ADR (crystal violet); format: cell-based; conditions: Homo sapiens, 96 h, 4 days, read-out: Inhibition of HeLa-MaTu-ADR cell proliferation IC50
Procedure: as §1

[3] = test system: NCI-H460 cells; experiment: Proliferation assay, NCI-H460 (crystal violet); format: cell-based; conditions: Homo sapiens, 96 h; NCI-H460, 4 days; read-out: Inhibition of NCI-H460 cell proliferation IC50
Procedure: as §1

[4] = test system: DU145 cells; experiment: Proliferation assay, DU145 (crystal violet); format: cell-based; conditions: Homo sapiens, DU-145, 96 h; DU145, 4 days; read-out: Inhibition of DU145 cell proliferation IC50
Procedure: as §1

[5] = test system: Caco-2 cells; experiment: Proliferation assay, Caco-2 (crystal violet); format: cell-based; conditions: Homo sapiens, 96 h; Caco-2, 4 days; read-out: Inhibition of Caco-2 cell proliferation IC50
Procedure: as §1

[6] = test system: B16F10 cells; experiment: Proliferation assay, B16F10 (crystal violet); format: cell-based; conditions: Mus musculus, B16-F10, 96 h; B16F10, 4 days; read-out: Inhibition of B16F10 cell proliferation IC50
Procedure: as §1

[7] = test system: A2780 cells; experiment: Proliferation assay, A2780 (crystal violet); format: cell-based; conditions: Homo sapiens, 96 h; A2780, 4 days; read-out: Inhibition of A2780 cell proliferation IC50
Procedure: as §1

[8] = Equilibrium shake flask solubility, high throughput from DMSO solution (Method 4a); format: physicochemical; conditions: phosphate buffer pH 6.5 with 1% DMSO, aqueous buffer, phosphate buffer pH 6.5, 24 hrs, room temperature
From the text: (§2) 4. Equilibrium Shake Flask Solubility Assays:
4a) High Throughput Determination of Aqueous Drug Solubility (100 mmolar in DMSO)
The high throughput screening method to determine aqueous drug solubility is based on:
Thomas Onofrey and Greg Kazan, Performance and correlation of a 96-well high throughput screening method to determine aqueous drug solubility, http://www.millipore.com/publications.nsf/a73664f9f981af8c852569b9005b4eee/e565516fb76e7435852 56da30052db77/$FILE/AN1731EN00.pdf
The assay was run in a 96-well plate format. Each well was filled with an individual compound.
All pipetting steps were performed using a robot platform.
100 μl of a 10 mmolar solution of drug in DMSO were concentrated by vacuum centrifugation and resolved in 10 μl DMSO. 990 μl phosphate buffer pH 6.5 were added. The content of DMSO amounts to 1%. The multititer plate was put on a shaker and mixed for 24 hrs at room temperature. 150 μl of the suspension were transferred to a filtration plate. After filtration using a vacuum manifold the filtrate was diluted 1:400 and 1:8000. A second microtiter plate with 20 μl of a 10 mM solution of drug in DMSO served for calibration. Two concentrations (0.005 μM and 0.0025 μM) were prepared by dilution in DMSO/water 1:1 and used for calibration. Filtrate and calibration plates were quantified by HPLC-MS/MS.
Preparation of 0.1 m Phosphate Buffer pH 6.5:
61.86 g NaCl and 39.54 mg KH2PO4 were solved in water and filled up to […]. The mixture was diluted 1:10 with water and the pH adjusted to 6.5 by NaOH.
Materials: • Millipore MultiScreenHTS-HV Plate 0.45 μm
Chromatographic conditions were as follows: • HPLC column: Ascentis Express C18 2.7 μm 4.6×30 mm • Injection volume: 1 μl • Flow: 1.5 ml/min • Mobile phase: acidic gradient • A: Water/0.05% HCOOH • B: Acetonitrile/0.05% HCOOH • 0 min→95% A 5% B • 0.75 min→5% A 95% B • 2.75 min→5% A 95% B • 2.76 min→95% A 5% B • 3 min→95% A 5% B
The areas of sample- and calibration injections were determined by using mass spectromety software (AB SCIEX: Discovery Quant 2.1.3. and Analyst 1.6.1). The calculation of the solubility value (in mg/l) was executed by an inhouse developed Excel macro.

[9] = Thermodynamic solubility in water from powder (Method 4b); format: physicochemical; conditions: aqueous buffer, thermodynamic from solid, phosphate buffer pH 6.5, 24 hrs, room temperature
Procedure: as §2
4b) Thermodynamic Solubility in Water from Powder
The thermodynamic solubility of compounds in water was determined by an equilibrium shake flask method (see for example: E. H. Kerns, L. Di: Drug-like Properties: Concepts, Structure Design and Methods, 276-286, Burlington, Mass., Academic Press, 2008). A saturated solution of the drug was prepared and the solution was mixed for 24 h to ensure that equilibrium was reached. The solution was centrifuged to remove the insoluble fraction and the concentration of the compound in solution was determined using a standard calibration curve. To prepare the sample, 2 mg solid compound was weighed in a 4 mL glass vial. 1 mL phosphate buffer pH 6.5 was added. The suspension was stirred for 24 hrs at room temperature. The solution was centrifuged afterwards. To prepare the sample for the standard calibration, 2 mg solid sample was dissolved in 30 mL acetonitrile. After sonification the solution was diluted with water to 50 mL. Sample and standards were quantified by HPLC with UV-detection. For each sample two injection volumes (5 and 50 μl) in triplicates were made. Three injection volumes (5 μl, 10 μl and 20 μl) were made for the standard. […]
The areas of sample- and standard injections as well as the calculation of the solubility value (in mg/l) were determined by using HPLC software (Waters Empower 2 FR).

[10] = Caco-2 permeation assay (Method 5); format: in vitro ADME; conditions: human, pH 7.2, Caco-2, 2 μM test compound, 2 h
Procedure: Cells were maintained at 37° C. in a humidified 5% CO2 atmosphere. Medium was changed every 2-3 day. Before running the permeation assay, the culture medium was replaced by a FCS-free hepes-carbonate transport buffer (pH 7.2). For assessment of monolayer integrity the transepithelial electrical resistance (TEER) was measured. Test compounds were predissolved in DMSO and added either to the apical or basolateral compartment in final concentration of 2 μM in transport buffer. Before and after 2 h incubation at 37° C. samples were taken from both compartments. Analysis of compound content was done after precipitation with methanol by LC/MS/MS analysis. Permeability (Papp) was calculated in the apical to basolateral (A→B) and basolateral to apical (B→A) directions. […] The efflux ratio basolateral (B) to apical (A) was calculated by dividing the Papp B−A by the Papp A−B. In addition the compound recovery was calculated.

IC50 [1]: 0.252 µM
IC50 [2]: 0.327 µM
IC50 [3]: 0.351 µM
IC50 [4]: 0.341 µM
IC50 [5]: 0.386 µM
IC50 [6]: 0.532 µM
IC50 [7]: 0.201 µM
solubility thermodynamic at 24 h [8]: 0.155 mg/mL (≈ 368 µM)
solubility thermodynamic at 24 h [9]: 0.091 mg/mL (≈ 216 µM)
Papp A→B at 2 h, 2 µM ([10]; read-out: Papp A−B (Mari)): 50 nm/s
Papp B→A at 2 h, 2 µM ([10]; read-out: Papp B−A (Mari)): 280 nm/s
Compound: COc1cc(F)ccc1-c1nc(Nc2cc(F)cc(CS(C)(=N)=N)c2)ncc1F [Example 1, 5-Fluoro-4-(4-fluoro-2-methoxyphenyl)-N-{3-fluoro-5-[(S-methylsulfonodiimidoyl)methyl]phenyl}pyrimidin-2-amine]
